In PMC11510156, “Rutin and Physalis peruviana Extract: Population Pharmacokinetics in New Zealand Rabbits” (Pharmaceutics, 2024):

Columns and labels:
[1] = Noncompartmental PK of rutin after intravenous administration of pure rutin or P. peruviana extract; format: in vivo, New Zealand White rabbits
Procedure: (§1) Twenty male New Zealand White rabbits were obtained from Sentagro E.A.T (Cachipay, Cundinamarca, Colombia), who certificated their origin and traceability. The animals were between 9 and 10 weeks old, weighing between 1.8 and 2.2 kg. They were allowed to acclimate for at least 5 days under constant temperature conditions (22 ± 1 °C), with light/dark cycles of 12 h, at the animal facility of the Department of Pharmacy of the Universidad Nacional de Colombia (UNAL), where the experiments were conducted. They were provided with water and food ad libitum until 12 h prior to the experiment, when they were fasted. The study protocol was approved by the ethics committee of the science faculty of the UNAL (Act 06, 2015, project 40831, 22 June 2015).
(§2) Rabbits were divided into four groups to receive either pure rutin or P. peruviana extract intravenously (i.v.) or orally (p.o.). The dose of rutin i.v. was set at 0.37 mg/kg, based on the highest quantity of the compound able to dissolve in 1 mL of the diluent used. The dose of extract i.v. was 100 mg/kg, a reference dose for animal experimentation in our group, which also allowed the solubilization of rutin in the extract within the administration volume. Oral rutin was administrated at a dose of 100 mg/kg, and oral extract was administrated at a dose of 500 mg/kg, which is an active dose from prior experiments. Based on the rutin content in the extract, the doses of extract used were equivalent to 1.48 mg/kg and 7.4 mg/kg of rutin for the i.v. and p.o. experiments, respectively.
(§3) For intravenous administration, solutions of rutin in sodium chloride solution (0.9% NaCl) were prepared at a concentration of 0.74 mg/mL, using DMSO (<0.1% of the final volume) to dissolve the compound. Meanwhile, the extract was directly dissolved in 0.9% NaCl at a concentration of 200 mg/mL. For oral administration, pure rutin and the extract were suspended in water near the time of the experiment to achieve concentrations in suspension of 200 and 1000 mg/mL, respectively. Vortexing and sonication were applied 3–4 times for 15 min each to all preparations. Each animal received 0.5 mL/kg of the treatment via the marginal ear vein (i.v.) or by oral gavage (p.o.).
(§4) Samples of blood (approximately 250 µL) were withdrawn from the marginal ear vein and collected in heparinized tubes at various time points. For experiments with i.v. administration, sampling was conducted at times 0, 0.083, 0.166, 0.333, 0.5, 0.75, 1, 1.5, 2, 3, 4, 6, 8, 12, and 24 h. For experiments with p.o. administration, sampling was performed at times 0, 0.083, 0.25, […], 0.75, 1, 2, 3, 4, 6, 8, 12, 24, and 48 h (Figure 1). The blood samples were then centrifuged at 3200× g and at 4 °C for 15 min to separate plasma, which was transferred to a new tube. The plasma was promptly acidified to pH 4 using 0.5 µL of 42.5% formic acid and then frozen at −80 °C until further analysis.
(§5) The quantification of analytes was carried out using a validated UHPLC-UV method on a Chromaster RS chromatograph (Hitachi, Tokyo, Japan). Briefly, plasma samples (100 µL) were supplemented with the internal standard, chrysin (1000 ng/mL), and divided into two tubes. One tube was immediately extracted and injected into the chromatographic system to quantify rutin. The plasma in the other tube first underwent a deconjugation reaction with 120 Fishman units of a mixture of the enzymes β-glucuronidase/arylsulfatase at pH 5.5 and 37 °C for 30 min. The product of the reaction, Quer, was also quantified, representing rutin metabolites Q3OG and Q3OS. The analytes in the plasma samples, rutin and Quer, were extracted using the protein precipitation method with twice the volume of methanol; proteins were then separated by centrifugation at 1200× g and 4 °C for 15 min, and the supernatant was used for instrumental analysis.
(§6) Concentrations–time data were tabulated and processed using MonolixSuite™ 2024R1 (Lixoft®, Paris, France). […]

[2] = Noncompartmental PK of rutin after oral administration of pure rutin or P. peruviana extract; format: in vivo, New Zealand White rabbits
Procedure: as §1, §2, §3, §4, §5, §6

[3] = Population PK model of rutin after i.v. administration (two-compartment, first-order elimination); format: in vivo, New Zealand White rabbits
Procedure: PopPK analysis was performed using the Monolix® module of the MonolixSuite™. Two models were established, one for rutin after i.v. administration of the treatments, and one for Quer, produced by deconjugation of Q3OG and Q3OS, after p.o. administration of the treatments. Structural models with one or two compartments and first-order elimination were assessed, incorporating a double first-order absorption for p.o. experiments. An analysis of covariate was conducted, using the source of rutin as categorical covariate (pure compound or extract), which was incorporated into the model if statistically significant (p < 0.05 for Pearson’s and Wald tests with stochastic approximation). Correlations between random effects of the parameters were also examined and included in the model when significant (p < 0.05 for t-test). The final model, along with the residual error model, was chosen based on criteria including individual fit plots, Akaike’s information criteria (AIC) values, observation-versus-prediction plot analysis, precision of estimated parameters, and evaluation of residual distribution. The variability on fixed-effect model parameters was described by Equation (4):(4) Pi=Ppop+β+η(i,p), where Pi is the value of the individual PK parameter, Ppop is the value of the population PK parameter, β represents the variability due to the covariate extract if significant, and η is the individual deviation with respect to the population. Models were parametrized in micro-constants, i.e., elimination rate constant (k), distribution rate constant from compartment 1 to compartment 2 (k12), and distribution rate constant from compartment 2 to compartment 1 (k21). When necessary, Cl was calculated as follows: (5) Cl=k×V, where V is the volume of distribution of first compartment. The model was internally validated through the visual predictive check (VPC) with 1000 simulated data points. Validation of structural, variability, and covariate models was considered achieved if the observed percentiles remained within the corresponding prediction intervals estimated across all simulated data and computed with a level of 90%. In addition, the parameter uncertainty was assayed by bootstrap analysis using 1000 runs. The model was considered stable, robust, and accurate if the mean parameters of the model were close to those estimated via bootstrap and fell within the 95% confidence interval (CI 95%).

[4] = Simple allometry prediction of human V and Cl of rutin; parameters: species or system humans
Description: Individual pharmacokinetics parameters estimated by PopPK analysis in this study, along with those from a previous study conducted by the group in Wistar rats, were used to extrapolate V and Cl to humans using the simple allometry Equation (6):(6) Y=a×W^b, where Y is the PK parameter in humans, W is the human weight, typically set at 70 kg, and a and b are the coefficient and the exponent of scaling, respectively. These last two values are obtained from the relationship between the PK parameter and body weight across different species. Theoretically, b is fixed to 0.75 for Cl and 1.0 for Vd, although it can vary depending on the drug and population under study.

[5] = parameters: method as in PMID 33921404; settings: rutin; popPK, Wistar rats; cited from earlier work
[6] = parameters: method as in PMID 32162346; settings: low solubility and low permeability; cited from earlier work
[7] = male, New Zealand White, rabbit, plasma, iv, rutin, pure rutin 0.37 mg/kg, extract equivalent to 1.48 mg/kg of rutin, NCA, mean ± SD, n = 5
[8] = rutin, i.v., pure rutin 0.37 mg/kg, extract equivalent to 1.48 mg/kg of rutin, NCA, mean ± SD, n = 5
[9] = male, New Zealand White, rabbit, plasma, po, rutin, pure rutin 100 mg/kg, extract equivalent to 7.4 mg/kg of rutin, NCA, mean ± SD, n = 5
[10] = male, New Zealand White, rabbit, po, rutin in plasma, pure rutin 100 mg/kg, extract equivalent to 7.4 mg/kg of rutin, NCA, mean ± SD, n = 5
[11] = rutin, p.o., pure rutin 100 mg/kg, extract equivalent to 7.4 mg/kg of rutin, NCA, mean ± SD, n = 5

Compound: C[C@@H]1O[C@@H](OC[C@H]2O[C@@H](Oc3c(-c4ccc(O)c(O)c4)oc4cc(O)cc(O)c4c3=O)[C@H](O)[C@@H](O)[C@@H]2O)[C@H](O)[C@H](O)[C@H]1O [Pure Rutin, quercetin-3-O-rutinoside]
- time post-dosage up to which rutin was quantified ([1]; i.v.): up to 6 h
- rutin plasma level, upper end of quantified range ([1]; i.v., mean ± SEM): 4960 ± 340 ng/mL
- AUC(0-inf) ([1]; male, New Zealand White, rabbit, iv, rutin in plasma, pure rutin 0.37 mg/kg, extract equivalent to 1.48 mg/kg of rutin, NCA, mean ± SD, n = 5): 4740 ± 814 ng·h/mL
- Vd ([1]; male, New Zealand White, rabbit, plasma, iv, 0.37 mg/kg, rutin, i.v., pure rutin 0.37 mg/kg, extract equivalent to 1.48 mg/kg of rutin, NCA, mean ± SD, n = 5, read-out: Vss): 0.29 ± 0.053 L/kg
- Vd ([1]; male, New Zealand White, rabbit, plasma, iv, 0.37 mg/kg, rutin, i.v., pure rutin 0.37 mg/kg, extract equivalent to 1.48 mg/kg of rutin, NCA, mean ± SD, n = 5, read-out: Vz): 0.084 ± 0.028 L/kg
- concentration at 6 h ([1]; male, New Zealand White, rabbit, plasma, iv, 0.37 mg/kg, i.v., mean ± SEM, at last quantified time, read-out: rutin plasma level, lower end of quantified range): 105 ± 24 ng/mL
- half-life ([1]; male, New Zealand White, rabbit, plasma, iv, rutin, i.v., pure rutin 0.37 mg/kg, extract equivalent to 1.48 mg/kg of rutin, NCA, mean ± SD, n = 5, read-out: t1/2 (terminal half-life) (converted)): 0.79 ± 0.381 h
- k el ([1]; male, New Zealand White, rabbit, plasma, iv, rutin, i.v., pure rutin 0.37 mg/kg, extract equivalent to 1.48 mg/kg of rutin, NCA, mean ± SD, n = 5, read-out: λz (converted)): 0.000294 s⁻¹
- MRT [1, 7]: 3.63 ± 0.163 h
- clearance [1, 7]: 1.32 mL/min/kg
- Cp^0 (plasma concentration at zero time) ([1]; rutin in plasma, i.v., pure rutin 0.37 mg/kg, extract equivalent to 1.48 mg/kg of rutin, NCA, mean ± SD, n = 5): 4960.02 ± 760.234 ng/mL
- AUC0–∞/dose [1, 8]: 12.90 ± 2.214 h/L/kg
- Cp^0/dose [1, 8]: 13.49 ± 2.068 L⁻¹ kg⁻¹
- bioavailability ([2]; male, New Zealand White, rabbit, plasma, po, p.o. vs i.v., pure rutin 100 mg/kg, extract equivalent to 7.4 mg/kg of rutin, read-out: F (absolute bioavailability of rutin)): 0.6%
- Vd/F ([2]; male, New Zealand White, rabbit, plasma, po, rutin, p.o., pure rutin 100 mg/kg, extract equivalent to 7.4 mg/kg of rutin, NCA, mean ± SD, n = 5, read-out: Vz/F): 59.1 ± 11.4 L/kg
- k el ([2]; male, New Zealand White, rabbit, plasma, po, rutin, p.o., pure rutin 100 mg/kg, extract equivalent to 7.4 mg/kg of rutin, NCA, mean ± SD, n = 5, read-out: λz (converted)): 6.5e-05 s⁻¹
- CL/F [2, 9]: 226 mL/min/kg
- MRT [2, 9]: 11.8 ± 0.916 h
- AUC(0-inf) [2, 10]: 7790 ± 2110 ng·h/mL
- Cmax [2, 10]: 1170 ± 371 ng/mL
- Tmax [2, 10]: 0.75 h
- time of second peak of rutin plasma concentration (double peaks) ([2]; p.o., Cmax here for the extract): 4.0 h
- time of first peak of rutin plasma concentration (double peaks) ([2]; p.o., Cmax here for the pure compound): 0.75 h
- AUC0–∞/dose [2, 11]: 0.078 ± 0.021 h/L/kg
- Cmax/dose [2, 11]: 0.012 ± 0.004 L⁻¹ kg⁻¹
- clearance ([3]; New Zealand White, rabbit, plasma, intravenous, 0.37 mg/kg, popPK individual parameters, Cl = k × V, per animal, read-out: Cl, rabbit parameter (converted)): 3.13 mL/min
- k12 (distribution rate constant compartment 1 to 2), population value ([3]; i.v., popPK): 3.666 h⁻¹
- k21 (distribution rate constant compartment 2 to 1), population value ([3]; i.v., popPK, no extract covariate): 3.777 h⁻¹
- Vd ([3]; male, New Zealand White, rabbit, plasma, iv, popPK, read-out: V (volume of distribution of first compartment), population value): 0.048 L/kg
- k el ([3]; male, New Zealand White, rabbit, plasma, iv, popPK, read-out: k (first-order elimination rate constant), population value (converted)): 0.000534 s⁻¹
- V, rabbit parameter ([3]; popPK individual parameters, per animal): 0.096 L
- V, human parameter (experimental b) ([4]; 70 kg, b exponent from the data): 1.410 L
- Cl, human parameter (theoretical b) ([4]; 70 kg, theoretical b 0.75): 2.323 L/h
- V, human parameter (theoretical b) ([4]; 70 kg, theoretical b 1.0): 3.988 L
- Cl, a coefficient of allometric scaling ([4]; Y = a × W^b, rats and rabbits): 0.096
- Cl, b exponent of allometric scaling ([4]; Y = a × W^b, rats and rabbits): 0.9
- V, a coefficient of allometric scaling ([4]; Y = a × W^b, rats and rabbits): 0.057
- V, b exponent of allometric scaling ([4]; Y = a × W^b, rats and rabbits): 0.8
- clearance ([4]; human, 70 kg, b exponent from the data, read-out: Cl, human parameter (experimental b) (converted)): 89.8 mL/min
- Cl, rat parameter [5]: 0.031 L/h
- V, rat parameter [5]: 0.024 L
- Biopharmaceutical Classification System class [6]: Class IV
